We go through 12 compounds from BindingDB's records for patent US20240148821 (Chugai Seiyaku Kabushiki Kaisha, 2024).

Numbered stars: 1 amine (or outer) side, 2 acyl side, 3 side chain; on linkers, the order of the positions; unused ones are H or OH. Bridge positions count the residues as written; N and C are the ends. Square brackets hold non-standard residues; d marks the D form. Peptide text beside a SMILES is read from it. * marks the point of attachment. ξ: configuration not given here. hPhe(3-Cl-4-CF3) = N[C@@H](CCc1ccc(C(F)(F)F)c(Cl)c1)C(=O)O; hPhe(3-F,4-CF3) = N[C@@H](CCc1ccc(C(F)(F)F)c(F)c1)C(=O)O; NMeGly(COCH2cHex) = CN[C@H](C(=O)O)C(=O)CC1CCCCC1; X54 = COc1cc(CC[C@H](N[*:1])C(=O)[*:2])cc(Cl)c1Cl; X63 = O=C([C@H](CCc1ccc(C(F)F)c(F)c1)N[*:1])[*:2]; X96 = O=C([C@H](CCc1ccc(C(F)(F)F)nc1)N[*:1])[*:2]; X123 = O=C([C@@H]1C[C@H](n2ccnn2)CN1[*:1])[*:2]; X31 = O=C([C@@H]1C[C@@H](n2ccnn2)CN1[*:1])[*:2]; X44 = O=C([C@H](CCc1ccc2cccnc2c1)N[*:1])[*:2]; X85 = O=C([C@H](CCc1ccc2ncccc2c1)N[*:1])[*:2]; NMeAla(cPent) = CN[C@@H](CC1CCCC1)C(=O)O; NMeGly(cPent) = CN[C@H](C(=O)O)C1CCCC1; NMeCha = CN[C@@H](CC1CCCCC1)C(=O)O; cisHyp = O=C(O)[C@@H]1C[C@H](O)CN1; Hyp = O=C(O)[C@@H]1C[C@@H](O)CN1; NMeChg = CN[C@H](C(=O)O)C1CCCCC1; NMeD = CN[C@@H](CC(=O)O)C(=O)O; Benzyl(4-Cl) = Clc1ccc(C*)cc1; NMeL = CN[C@@H](CC(C)C)C(=O)O; NMeV = CN[C@H](C(=O)O)C(C)C; NMeA = CN[C@@H](C)C(=O)O; Piperidide = C1CCN(*)CC1; X57 = FC(F)Oc1ccc(C*)cc1; Ac5c = NC1(C(=O)O)CCCC1; Aze = O=C(O)[C@@H]1CCN1; X106 = Clc1cccc(C*)c1; ξP = O=C(O)C1CCCN1; Sar = CNCC(=O)O

Sequence of GTPase KRas (G12D) and Son of Sevenless Homolog 1 (SOS) (P01116 whole entry G12D): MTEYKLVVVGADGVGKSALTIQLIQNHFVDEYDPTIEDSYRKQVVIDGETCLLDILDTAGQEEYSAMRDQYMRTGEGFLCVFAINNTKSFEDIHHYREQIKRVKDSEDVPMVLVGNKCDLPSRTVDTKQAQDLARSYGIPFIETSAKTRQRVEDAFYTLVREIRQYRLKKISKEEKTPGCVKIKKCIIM
Sequence of GTPase KRas (G12D) and Son of Sevenless Homolog 1 (SOS) (Q07889 whole entry, further chain): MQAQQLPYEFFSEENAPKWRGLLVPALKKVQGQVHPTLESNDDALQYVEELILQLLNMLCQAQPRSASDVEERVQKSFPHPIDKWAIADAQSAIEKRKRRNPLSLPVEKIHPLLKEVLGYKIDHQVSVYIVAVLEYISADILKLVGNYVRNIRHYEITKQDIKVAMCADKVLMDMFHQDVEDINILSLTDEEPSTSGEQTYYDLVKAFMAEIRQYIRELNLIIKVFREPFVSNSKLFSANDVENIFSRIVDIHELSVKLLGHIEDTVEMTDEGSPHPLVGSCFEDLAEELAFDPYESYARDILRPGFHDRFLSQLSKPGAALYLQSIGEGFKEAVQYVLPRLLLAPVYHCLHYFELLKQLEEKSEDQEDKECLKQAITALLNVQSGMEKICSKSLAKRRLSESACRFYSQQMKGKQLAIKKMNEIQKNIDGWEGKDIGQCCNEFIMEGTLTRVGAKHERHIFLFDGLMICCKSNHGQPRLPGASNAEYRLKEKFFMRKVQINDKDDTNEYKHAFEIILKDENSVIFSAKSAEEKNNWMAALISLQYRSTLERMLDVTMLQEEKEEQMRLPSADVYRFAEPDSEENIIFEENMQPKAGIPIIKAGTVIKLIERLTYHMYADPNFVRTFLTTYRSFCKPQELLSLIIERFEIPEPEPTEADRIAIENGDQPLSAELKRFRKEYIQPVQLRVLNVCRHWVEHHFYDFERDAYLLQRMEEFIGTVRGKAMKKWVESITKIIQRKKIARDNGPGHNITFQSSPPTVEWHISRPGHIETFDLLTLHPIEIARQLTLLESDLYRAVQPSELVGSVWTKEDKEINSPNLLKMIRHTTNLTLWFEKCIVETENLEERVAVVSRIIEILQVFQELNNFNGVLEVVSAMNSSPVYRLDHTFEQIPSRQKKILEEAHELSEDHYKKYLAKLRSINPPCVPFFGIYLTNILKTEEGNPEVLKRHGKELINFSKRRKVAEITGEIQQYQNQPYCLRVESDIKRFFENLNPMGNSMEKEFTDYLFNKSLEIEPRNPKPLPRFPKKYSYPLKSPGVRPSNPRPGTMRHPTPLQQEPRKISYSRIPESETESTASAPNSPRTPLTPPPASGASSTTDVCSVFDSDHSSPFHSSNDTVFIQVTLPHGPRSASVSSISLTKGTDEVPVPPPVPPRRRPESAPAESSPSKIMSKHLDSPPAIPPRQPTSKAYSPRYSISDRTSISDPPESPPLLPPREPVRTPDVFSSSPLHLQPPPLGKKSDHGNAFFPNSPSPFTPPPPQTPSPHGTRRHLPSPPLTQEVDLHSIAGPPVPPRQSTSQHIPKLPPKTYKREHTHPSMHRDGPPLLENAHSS

The assay concerns the target GTPase KRas (G12D) and Son of Sevenless Homolog 1 (SOS) (Homo sapiens, UniProt P01116, G12D). As to the kind of experiment: AlphaScreen Assay.
Protocol: Protein-protein interaction inhibition (PPI) between Kras and SOS1 was measured by energy transfer from nickel-conjugated donor beads to streptavidin-conjugated acceptor beads using biotin-tagged human Kras expressed in E. coli and loaded with GDP after purification and His-tagged human SOS1 enzyme. This measurement utilizes the phenomenon in which donor beads are irradiated with light at 680 nm, such that energy is transferred to acceptor beads through singlet oxygen and light at 520-620 nm is detected from the acceptor beads.
For the compound `CC[C@H](C)[C@@H]1NC(=O)[C@H](CC(C)C)N(C)C(=O)C[C@@H](C(=O)N2CCCCC2)N(C)C(=O)[C@H](C2CCCC2)N(C)C(=O)C2(CCCC2)NC(=O)[C@@H]2CCCN2C(=O)[C@H](CCc2ccc3ncccc3c2)NC(=O)CN(C)C(=O)[C@H](CC2CCCCC2)N(C)C(=O)[C@@H]2CCN2C(=O)[C@H](C)N(C)C1=O` [US20240148821, Compound 2070] ([NMeL]I[NMeA][Aze][NMeCha][Sar][X85]P[Ac5c][NMeGly(cPent)][NMeD]-Piperidide; lactam N-11), the concentration for half-maximal inhibition (IC50) came to 18 nM.

Compound `CC[C@H](C)[C@@H]1NC(=O)[C@H](CC(C)C)N(C)C(=O)C[C@@H](C(=O)N2CCCCC2)N(C)C(=O)[C@H](C2CCCC2)N(C)C(=O)C2(CCCC2)NC(=O)[C@@H]2CCCN2C(=O)[C@H](CCc2ccc3cccnc3c2)NC(=O)CN(C)C(=O)[C@H](CC2CCCCC2)N(C)C(=O)[C@@H]2CCN2C(=O)[C@H](C)N(C)C1=O` [US20240148821, Compound 2077] ([NMeL]I[NMeA][Aze][NMeCha][Sar][X44]P[Ac5c][NMeGly(cPent)][NMeD]-Piperidide; lactam N-11) gave an IC50 of 47 nM.

For `CC[C@H](C)[C@@H]1NC(=O)[C@H](CC(C)C)N(C)C(=O)C[C@@H](C(=O)N2CCCCC2)N(C)C(=O)[C@H](C2CCCC2)N(C)C(=O)C2(CCCC2)NC(=O)[C@@H]2CCCN2C(=O)[C@H](CCc2ccc(C(F)(F)F)nc2)NC(=O)CN(C)C(=O)[C@H](CC2CCCCC2)N(C)C(=O)[C@@H]2CCN2C(=O)[C@H](C)N(C)C1=O` [US20240148821, Compound 2078] ([NMeL]I[NMeA][Aze][NMeCha][Sar][X96]P[Ac5c][NMeGly(cPent)][NMeD]-Piperidide; lactam N-11), the IC50 turned out to be 11 nM.

Compound `CC[C@H](C)[C@@H]1NC(=O)[C@H](C)N(C)C(=O)C[C@@H](C(=O)N2CCCCC2)N(C)C(=O)[C@H](C2CCCCC2)N(C)C(=O)C2(CCCC2)NC(=O)C2CCCN2C(=O)[C@H](CCc2cc(Cl)c(Cl)c(OC)c2)NC(=O)CN(C)C(=O)[C@H](C(=O)CC2CCCCC2)N(C)C(=O)CN(C)C(=O)CN(C)C1=O` (some centres not stated) [US20240148821, Compound 2081] ([NMeA]I[Sar][Sar][NMeGly(COCH2cHex)][Sar][X54][ξP][Ac5c][NMeChg][NMeD]-Piperidide; lactam N-11) registered an IC50 of 2 nM.

Compound `CC[C@H](C)[C@@H]1NC(=O)[C@H](CC(C)C)N(C)C(=O)C[C@@H](C(=O)N2CCCCC2)N(C)C(=O)[C@H](C2CCCC2)N(C)C(=O)C2(CCCC2)NC(=O)[C@@H]2CCCN2C(=O)[C@H](CCc2ccc(C(F)F)c(F)c2)NC(=O)CN(C)C(=O)[C@H](CC2CCCCC2)N(C)C(=O)[C@@H]2CCN2C(=O)[C@H](C)N(C)C1=O` [US20240148821, Compound 2085] ([NMeL]I[NMeA][Aze][NMeCha][Sar][X63]P[Ac5c][NMeGly(cPent)][NMeD]-Piperidide; lactam N-11) showed a 50% inhibitory concentration (IC50) of 2.9 nM.

`CC[C@H](C)[C@@H]1NC(=O)[C@H](CC(C)C)N(C)C(=O)C[C@@H](C(=O)N2CCCCC2)N(C)C(=O)[C@H](C(C)C)N(C)C(=O)C2(CCCC2)NC(=O)[C@@H]2C[C@@H](n3ccnn3)CN2C(=O)[C@H](CCc2ccc(C(F)(F)F)c(Cl)c2)NC(=O)CN(C)C(=O)[C@H](CC2CCCC2)N(C)C(=O)CN(C)C(=O)CN(C)C1=O` [US20240148821, Compound 2113] ([NMeL]I[Sar][Sar][NMeAla(cPent)][Sar][hPhe(3-Cl-4-CF3)][X31][Ac5c][NMeV][NMeD]-Piperidide; lactam N-11): the IC50 was determined as 0.47 nM.

For `CC[C@H](C)[C@@H]1NC(=O)[C@H](CC(C)C)N(C)C(=O)C[C@@H](C(=O)N2CCCCC2)N(C)C(=O)[C@H](C(C)C)N(C)C(=O)C2(CCCC2)NC(=O)[C@@H]2C[C@H](n3ccnn3)CN2C(=O)[C@H](CCc2ccc(C(F)(F)F)c(Cl)c2)NC(=O)CN(C)C(=O)[C@H](CC2CCCC2)N(C)C(=O)CN(C)C(=O)CN(C)C1=O` [US20240148821, Compound 2115] ([NMeL]I[Sar][Sar][NMeAla(cPent)][Sar][hPhe(3-Cl-4-CF3)][X123][Ac5c][NMeV][NMeD]-Piperidide; lactam N-11), the 50% inhibitory concentration (IC50) stood at 1.1 nM.

Regarding `CCO[C@@H]1C[C@H]2C(=O)NC3(CCCC3)C(=O)N(C)[C@@H](CC(C)C)C(=O)N(C)[C@H](C(=O)N3CCCCC3)CC(=O)N(C)[C@@H](CC(C)C)C(=O)N[C@@H]([C@@H](C)CC)C(=O)N(C)CC(=O)N(C)CC(=O)N(C)[C@@H](CC3CCCCC3)C(=O)N(C)CC(=O)N[C@@H](CCc3ccc(C(F)(F)F)c(F)c3)C(=O)N2C1` [US20240148821, Compound 2118] ([NMeL]I[Sar][Sar][NMeCha][Sar][hPhe(3-F,4-CF3)][Hyp](Et)[Ac5c][NMeL][NMeD]-Piperidide; lactam N-11), half-maximal inhibition (IC50) required 3.2 nM. This IC50 lies about 2.9-fold higher than the previous one.

Compound `CC[C@H](C)[C@@H]1NC(=O)[C@H](CC(C)C)N(C)C(=O)C[C@@H](C(=O)N2CCCCC2)N(C)C(=O)[C@H](CC(C)C)N(C)C(=O)C2(CCCC2)NC(=O)[C@@H]2C[C@H](OCc3cccc(Cl)c3)CN2C(=O)[C@H](CCc2ccc(C(F)(F)F)c(F)c2)NC(=O)CN(C)C(=O)[C@H](CC2CCCCC2)N(C)C(=O)CN(C)C(=O)CN(C)C1=O` [US20240148821, Compound 2126] ([NMeL]I[Sar][Sar][NMeCha][Sar][hPhe(3-F,4-CF3)][cisHyp](X106)[Ac5c][NMeL][NMeD]-Piperidide; lactam N-11) yielded a concentration for half-maximal inhibition (IC50) of 37 nM. This IC50 lies about 12-fold higher than the previous one.

`CCO[C@H]1C[C@H]2C(=O)NC3(CCCC3)C(=O)N(C)[C@@H](CC(C)C)C(=O)N(C)[C@H](C(=O)N3CCCCC3)CC(=O)N(C)[C@@H](CC(C)C)C(=O)N[C@@H]([C@@H](C)CC)C(=O)N(C)CC(=O)N(C)CC(=O)N(C)[C@@H](CC3CCCCC3)C(=O)N(C)CC(=O)N[C@@H](CCc3ccc(C(F)(F)F)c(F)c3)C(=O)N2C1` [US20240148821, Compound 2127] ([NMeL]I[Sar][Sar][NMeCha][Sar][hPhe(3-F,4-CF3)][cisHyp](Et)[Ac5c][NMeL][NMeD]-Piperidide; lactam N-11) had an IC50 of 4.5 nM.

In the case of `CC[C@H](C)[C@@H]1NC(=O)[C@H](CC(C)C)N(C)C(=O)C[C@@H](C(=O)N2CCCCC2)N(C)C(=O)[C@H](CC(C)C)N(C)C(=O)C2(CCCC2)NC(=O)[C@@H]2C[C@@H](OCc3ccc(OC(F)F)cc3)CN2C(=O)[C@H](CCc2ccc(C(F)(F)F)c(F)c2)NC(=O)CN(C)C(=O)[C@H](CC2CCCCC2)N(C)C(=O)CN(C)C(=O)CN(C)C1=O` [US20240148821, Compound 2128] ([NMeL]I[Sar][Sar][NMeCha][Sar][hPhe(3-F,4-CF3)][Hyp](X57)[Ac5c][NMeL][NMeD]-Piperidide; lactam N-11), the IC50 amounted to 15 nM.

`CC[C@H](C)[C@@H]1NC(=O)[C@H](CC(C)C)N(C)C(=O)C[C@@H](C(=O)N2CCCCC2)N(C)C(=O)[C@H](CC(C)C)N(C)C(=O)C2(CCCC2)NC(=O)[C@@H]2C[C@H](OCc3ccc(Cl)cc3)CN2C(=O)[C@H](CCc2ccc(C(F)(F)F)c(F)c2)NC(=O)CN(C)C(=O)[C@H](CC2CCCCC2)N(C)C(=O)CN(C)C(=O)CN(C)C1=O` [US20240148821, Compound 2129] ([NMeL]I[Sar][Sar][NMeCha][Sar][hPhe(3-F,4-CF3)][cisHyp](Benzyl(4-Cl))[Ac5c][NMeL][NMeD]-Piperidide; lactam N-11) registered a concentration for half-maximal inhibition (IC50) of 46 nM.
